Laboratory results reported in patent US20020082254A1, “Compounds for treating disorders where a decreased level of plasma FFA is desired” (priority 2000, published 2002).

Assays:
[1] = target: T1, Hormone-sensitive lipase (HSL) (Homo sapiens, UniProt Q05469); experiment: Hormone-sensitive lipase (HSL) inhibition assay, 3H-labeled triolein or MOME substrate; format: biochemical; conditions: read-out: HSL inhibition (IC50)
T1 sequence (Q05469 1-1076): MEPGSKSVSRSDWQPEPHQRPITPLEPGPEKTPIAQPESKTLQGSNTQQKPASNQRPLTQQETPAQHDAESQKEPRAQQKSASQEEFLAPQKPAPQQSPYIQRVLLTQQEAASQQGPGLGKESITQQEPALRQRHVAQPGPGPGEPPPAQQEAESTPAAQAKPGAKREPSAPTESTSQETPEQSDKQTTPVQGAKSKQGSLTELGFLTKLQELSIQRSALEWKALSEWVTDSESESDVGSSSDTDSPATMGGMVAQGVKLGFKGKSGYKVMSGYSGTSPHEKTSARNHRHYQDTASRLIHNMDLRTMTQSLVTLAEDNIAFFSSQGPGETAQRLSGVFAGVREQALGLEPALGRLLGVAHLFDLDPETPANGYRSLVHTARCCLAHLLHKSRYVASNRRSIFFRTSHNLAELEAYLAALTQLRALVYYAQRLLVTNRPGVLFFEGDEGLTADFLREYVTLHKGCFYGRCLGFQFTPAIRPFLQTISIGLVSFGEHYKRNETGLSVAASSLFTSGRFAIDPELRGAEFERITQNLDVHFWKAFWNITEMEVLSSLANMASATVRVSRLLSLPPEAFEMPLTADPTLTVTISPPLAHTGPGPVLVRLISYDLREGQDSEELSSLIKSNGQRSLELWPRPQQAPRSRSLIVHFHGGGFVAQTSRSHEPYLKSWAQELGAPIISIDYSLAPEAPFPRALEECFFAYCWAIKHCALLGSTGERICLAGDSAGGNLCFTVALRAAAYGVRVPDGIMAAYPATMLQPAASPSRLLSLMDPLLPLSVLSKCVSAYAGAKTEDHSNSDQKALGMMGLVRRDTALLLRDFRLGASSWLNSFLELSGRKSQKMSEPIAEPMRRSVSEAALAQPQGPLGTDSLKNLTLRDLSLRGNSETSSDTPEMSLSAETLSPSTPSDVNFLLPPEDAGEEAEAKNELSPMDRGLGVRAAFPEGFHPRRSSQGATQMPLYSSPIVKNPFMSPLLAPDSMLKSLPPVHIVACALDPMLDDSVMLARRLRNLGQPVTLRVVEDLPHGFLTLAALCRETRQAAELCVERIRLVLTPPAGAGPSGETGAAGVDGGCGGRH
Text: Hormone-sensitive lipase (HSL) [classified as a triacylglycerol lipase, EC 3.1.1.3, in accordance with the Recommendations of the Nomenclature Committee of the International Union of Biochemistry and Molecular Biology (available on the World Wide Web at the following address: http://www.chem.qmw.ac.uk/iubmb/enzyme/)]
Materials. The Hormone-sensitive lipase employed was provided by Dr. Cecilia Holm of Lund University, Sweden, or produced and purified by Novo Nordisk (NN) using the reagents and protocols employed by Dr. Holm. The substrates used are: ^3H-labeled triolein (TO) from Amersham, Buckinghamshire, U.K. cat No. TRA191; 5-20 Ci/mmol dissolved in toluene, triolein (Sigma, Cat. No. T-1740) and mono-oleoyl-2-O-mono-oleylglycerol (MOME) synthesized at (NN) using the protocols provided by Dr. Cecilia Holm, Lund University, Sweden. Phosphatidyl choline (PC) and phosphatidyl inositol (PI) are from Sigma (St Luis Mo., cat. Nos. P-3556 and P-5954, respectively). All other reagents are of commercial grade and obtained from various commercial sources.
Methods. The preparation of the substrates is as follows:
TO: 30 μl PC:PI (20 mg/ml solution of PC:PI 3:1 prepared in chloroform)+128 μl cold TO+15 μl ^3H-TO
MOME: 30 μl PC:PI+100 μl cold MOME+200 μl ^3H-MOME
They are then evaporated under a gentle stream of N2 followed by 20-30 minutes in a Speedvac™ apparatus to ensure the absence of residual solvent.
The samples are prepared as follows:
Samples/controls: 78 μl PED-BSA+20 μl inhibitor (various concentrations)+2 μl HSL (undiluted 0.12 mg/ml). If no inhibitors are being tested, the reaction contains 98 μl PED-BSA+2 μl HSL.
The samples are put on ice and then sonicated as follows:
With TO as substrate, add 2 ml potassium buffer (0.1M potassium phosphate, pH 7) and then sonicate twice for 1 minute, with a 1-minute interval between cycles. Add an additional 1 ml potassium buffer and sonicate 4 times for 30 seconds, with a 30 second interval in between cycles. To finish, add 1 ml BSA 20%-in potassium buffer, mix by inversion and store on ice until use.
With MOME as substrate: add 2 ml potassium buffer and then sonicate twice for 1 minute, with a 1 minute interval between cycles. Add 1.6 ml potassium buffer and sonicate 4 times for 30 seconds, with a 30-second interval between cycles. To finish, add 0.4 ml BSA 20%-buffer, mix by inversion and store on ice until use.
The enzyme reaction is run at 37° C. The substrate mix is added to the various reactions at 10 second intervals, incubated for 30 minutes in a water bath and then stopped with 3.25 ml of a solution containing CH3OH:CHCl3:heptane (10:9:7). After the addition of 1.05 ml potassium buffer pH10.5, the sample is vortexed thoroughly and centrifuged for 20 min at 2000 r.p.m. One ml of the upper phase is added to 10 ml scintillation fluid, and mixed thoroughly by shaking.
The samples are then counted, 5 min per vial, in a scintillation counter.

Lipoprotein lipase (LPL) = target: T2, Lipoprotein lipase (LPL) (Bos taurus, UniProt P11151); experiment: Lipoprotein lipase (LPL) inhibition assay, 3H-triolein/intralipid substrate; format: biochemical; conditions: read-out: LPL inhibition (% inh. at 50 μM)
T2 construct: Dr. Gunilla Olivecrona, Umea University (gift)
T2 sequence (P11151 29-478): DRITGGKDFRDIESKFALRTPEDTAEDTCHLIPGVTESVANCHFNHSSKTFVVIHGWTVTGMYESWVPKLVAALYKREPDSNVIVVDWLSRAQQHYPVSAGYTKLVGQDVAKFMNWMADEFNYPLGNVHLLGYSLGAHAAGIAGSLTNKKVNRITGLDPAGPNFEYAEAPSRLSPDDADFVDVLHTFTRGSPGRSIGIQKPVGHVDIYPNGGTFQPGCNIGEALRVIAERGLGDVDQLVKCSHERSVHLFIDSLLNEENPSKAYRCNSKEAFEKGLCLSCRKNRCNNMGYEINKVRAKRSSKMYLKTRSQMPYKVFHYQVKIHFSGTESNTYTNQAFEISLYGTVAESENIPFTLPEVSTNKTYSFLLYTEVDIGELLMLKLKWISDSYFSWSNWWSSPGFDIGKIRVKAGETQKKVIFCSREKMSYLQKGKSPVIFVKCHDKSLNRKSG
Text: Lipoprotein Lipase (LPL) [Classified as EC 3.1.1.34 in accordance with the Recommendations of the Nomenclature Committee of the International Union of Biochemistry and Molecular Biology (available on the World Wide Web at the following address: http://www.chem.qmw.ac.uk/iubmb/enzyme/)]
Materials. The lipoprotein lipase employed was obtained from Dr. Gunilla Olivecrona of Umea University, Sweden. ^3H-triolein (TO) from Amersham, Buckinghamshire, U.K., cat No. TRA191; 5-20 Ci/mmol dissolved in toluene. Intralipid is from Kabi-Fresenius). Apo CII was obtained from PMSF-treated plasma from overnight fasted rats. All other reagents are of commercial grade and obtained from various commercial sources.
Methods. The preparation of the substrate is as follows:
25 μl of ^3H-Triolein evaporated under a gentle stream of N2 in a 27° C. room in 4 ml chromacol glass followed by the addition of 1 ml 10% intralipid. This is mixed and sonicated on ice for 5 minutes (50% pulse mode). This can be kept for 1 week at 4° C.
100 μl assay medium (0.3M Tris-Cl, 0.2M NaCl, 0.2 mg heparin/ml and 120 mg BSA/ml (fraction V, Sigma no. 3401, pH 8.5))
All mixed in a 13×100 mm glass tube and incubated for at least 5 minutes.
2. Add 5 μl LPL (of a solution containing 500 mU/mg)
Mix and incubate for 30 minutes at 25° C.
3. The reaction is stopped with 3.25 ml of a solution containing Methanol:chloroform:heptan 10:9:7. Add 1.05 ml buffer (100 mM Boric acid, 100 mM potassium carbonate pH 10.5) and mix 10 seconds per vial.
5. Take 1 ml of the upper phase+10 ml scintillation fluid and mix
6. Scintillation count for 5 minutes per vial.

| SMILES | IC50 [1] [µM] | inhibition at 50 µM (Lipoprotein lipase (LPL)) [%] |
| --- | --- | --- |
| CC1c2ccccc2CCN1NC(=O)Oc1ccc(Cl)cc1 (stereo not shown) [Example 22, (1-Methyl-3,4-dihydro-1H-isoquinolin-2-yl)-carbamic Acid 4chloro-phenyl Ester] | 0.03 | 10 |
| COc1ccc(OC(=O)NN2CCc3ccccc3C2)cc1 [Example 3, (3,4-Dihydro-1H-isoquinolin-2-yl)-carbamic acid 4-methoxy-phenyl Ester] | 0.36 | 0 |
| O=C(NN1CCc2ccccc2C1)Oc1c(Cl)cccc1Cl [Example 11, (3,4-Dihydro-1H-isoquinolin-2-yl)-carbamic Acid 2.6-dichloro-phenyl Ester] | > 10 | 7 |
| CCCc1ccc(OC(=O)NN2CCc3ccccc3C2)cc1 [Example 20, (3,4-Dihydro-1H-isoquinolin-2-yl)-carbamic Acid 4-propyl-phenyl Ester] | 0.24 | 4 |
| CCCCOc1ccc(OC(=O)NN2CCc3ccccc3C2)cc1 [Example 30] | 3.8 | 6 |
| COc1ccccc1OC(=O)NN1CCc2ccccc2C1 [Example 2, (3,4-Dihydro-1H-isoquinolin-2-yl)-carbamic acid 2-methoxy-phenyl Ester] | 6.4 | 2 |
| Cc1ccccc1OC(=O)NN1CCc2ccccc2C1 [Example 9, (3,4-Dihydro-1H-isoquinolin-2-yl)-carbamic Acid o-tolyl Ester] | 1.6 | 7 |
| O=C(NN1CCc2ccccc2C1)Oc1ccccc1Br [Example 14, (3,4-Dihydro-1H-isoquinolin-2-yl)-carbamic Acid 2-bromo-phenyl Ester] | 0.8 | 7 |
| COC(=O)Cc1ccc(OC(=O)NN2CCc3ccccc3C2)cc1 [Example 42] | 0.04 | 6 |
| Cc1ccc(OC(=O)NN2CCc3ccccc3C2)cc1 [Example 8, (3,4-Dihydro-1H-isoquinolin-2-yl)-carbamic Acid p-tolyl Ester] | 0.03 | 1 |
| COC(=O)c1ccc(OC(=O)NN2CCc3ccccc3C2)cc1 [Example 4, 4-(3,4-Dihydro-1H-isoquinolin-2-ylcarbamoyloxy)-benzoic Acid Methyl Ester] | 9.9 | 20 |
| CCC(C)(C)c1ccc(OC(=O)NN2CCc3ccccc3C2)cc1 [Example 31] | > 10 | 1 |
| CCCCCOc1ccc(OC(=O)NN2CCc3ccccc3C2)cc1 [Example 37] | 3.9 | 0 |
| CC(C)(C)c1ccc(OC(=O)NN2CCc3ccccc3C2)cc1 [Example 32] | > 10 | 0 |
